In patent US11337982B2, “Combined treatment with a TLR7 agonist and an HBV capsid assembly inhibitor” (Hoffmann-La Roche Inc., priority 2016, dated 2022):
One block for each molecule: values may come before it.

What was measured:
human TLR7 = target: T1, human TLR7 (Homo sapiens, UniProt Q9NYK1); assay: HEK293-Blue-hTLR-7 cells assay (SEAP reporter); assay type: cell-based; settings: active moiety; read-out: potency to active TLR7 in HEK293-hTLR7 assay
T1 sequence (Q9NYK1 27-1049): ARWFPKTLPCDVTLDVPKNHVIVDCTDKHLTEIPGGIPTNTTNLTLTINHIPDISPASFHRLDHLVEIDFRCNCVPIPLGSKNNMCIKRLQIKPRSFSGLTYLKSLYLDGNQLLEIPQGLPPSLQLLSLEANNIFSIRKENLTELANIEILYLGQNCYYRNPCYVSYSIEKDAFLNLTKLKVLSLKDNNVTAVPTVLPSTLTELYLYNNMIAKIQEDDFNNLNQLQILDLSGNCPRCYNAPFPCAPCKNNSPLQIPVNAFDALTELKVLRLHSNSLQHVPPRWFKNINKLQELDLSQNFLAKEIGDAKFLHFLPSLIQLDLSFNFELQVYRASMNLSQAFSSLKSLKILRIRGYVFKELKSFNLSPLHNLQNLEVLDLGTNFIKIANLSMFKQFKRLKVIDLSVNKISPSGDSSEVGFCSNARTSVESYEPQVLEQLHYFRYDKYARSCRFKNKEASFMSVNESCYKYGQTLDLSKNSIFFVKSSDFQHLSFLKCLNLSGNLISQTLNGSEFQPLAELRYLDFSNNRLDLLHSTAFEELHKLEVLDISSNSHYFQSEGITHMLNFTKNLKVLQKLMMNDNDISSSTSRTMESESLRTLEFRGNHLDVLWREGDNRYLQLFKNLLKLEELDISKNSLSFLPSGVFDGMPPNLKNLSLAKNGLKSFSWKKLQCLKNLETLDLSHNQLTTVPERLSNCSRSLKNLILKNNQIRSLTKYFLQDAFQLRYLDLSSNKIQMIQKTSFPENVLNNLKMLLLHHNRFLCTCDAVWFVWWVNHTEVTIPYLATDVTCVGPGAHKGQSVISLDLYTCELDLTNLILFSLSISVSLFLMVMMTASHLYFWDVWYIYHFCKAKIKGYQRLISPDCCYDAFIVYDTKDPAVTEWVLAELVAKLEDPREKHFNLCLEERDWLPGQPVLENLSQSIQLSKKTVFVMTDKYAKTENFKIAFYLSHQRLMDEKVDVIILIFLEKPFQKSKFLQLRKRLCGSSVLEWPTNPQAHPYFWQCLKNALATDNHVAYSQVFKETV
Text: HEK293-Blue-hTLR-7 Cells Assay:
A stable HEK293-Blue-hTLR-7 cell line was purchased from InvivoGen (Cat.#: hkb-htlr7, San Diego, Calif., USA). These cells were designed for studying the stimulation of human TLR7 by monitoring the activation of NF-κB. A reporter gene of secreted embryonic alkaline phosphatase (SEAP) was placed under the control of the IFN-β[…]minimal promoter fused to five NF-κB and AP-1-binding sites. SEAP was induced by the activation of NF-κB and AP-1 upon stimulating HEK-Blue hTLR7 cells with TLR7 ligands. SEAP activity in cell culture supernatant was determined using QUANTI-Blue™ kit (Cat.#: rep-qb1, Invivogen, San Diego, Calif., USA) at a wavelength of 640 nm. Such reporter assays have been widely used for evaluation of TLR7 agonism (Tsuneyasu Kaisho and Takashi Tanaka, Trends in Immunology, Volume 29, Issue 7, July 2008, […]; Hiroaki Hemmi et al, Nature Immunology 3, 196-200 (2002).
Specifically, HEK293-Blue-hTLR7 cells were incubated at a density of 250,000˜450,000 cells/mL in a volume of 180 μL in a 96-well plate in Dulbecco's Modified Eagle's medium (DMEM) containing 4.5 g/L glucose, 50 U/mL penicillin, […], […], 2 mM L-glutamine, 10% (v/v) heat-inactivated fetal bovine serum for 24 h. The cells were then incubated with 20 μL of test compound in a serial dilution at 37° C. in a CO2 incubator for 20 hours. Then 20 μL of the supernatant from each well was incubated with 180 μL Quanti-blue substrate solution at 37° C. for 2 hours and the absorbance was measured at 620˜655 nm using a spectrophotometer.

HBV = HBV infected transgenic mouse or humanized mouse models; cited from earlier work
[1] = Conversion of prodrug into active moiety
AAV-HBV = AAV-HBV mouse model, serum HBV biomarkers; assay type: in vivo; settings: Compound 5 20 mg/kg QD, p.o., after 42 days of treatment
Text: 4-week old male C57BL/6 mice, specific pathogen free, were purchased from Shanghai Laboratory Animal Center of Chinese Academy of Sciences (SLAC) and housed in an animal care facility in individually ventilated cages under controlled temperature and light conditions following the Institutional Animal Care guidelines. AAV-HBV virus was purchased from Beijing FivePlus Molecular Medicine Institute (Beijing, China). This recombinant virus carries 1.3 copies of the HBV genome, which was packaged in AAV serotype 8 (AAV8) capsids. C57BL/6 mice were injected with 200 μL of recombinant virus, diluted in saline buffer, through tail vein injection. After 3-4 weeks, animals were bled to monitor HBV genomic DNA and surface antigen (HBsAg) in serum, and then were randomly grouped according to these HBV biomarkers.
Serum HBsAg was measured using CLIA kits (Autobio Diagnostics Co., Ltd, Zhengzhou, China) according to the manufacturer's instructions. The lower limit of detection (LLOQ) for HBsAg was 0.05 IU/mL. 500-fold dilution of serum was used to obtain values within the linear range of standard curves. Serum HBV DNA was extracted using a MagNA Pure 96 DNA and Viral NA Small Volume Kit (Roche) following the manufacturer's instructions. The DNA samples were analyzed by real-time quantitative PCR (qPCR) using a HBV-specific primer and probe set for specific amplification and detection of a 128 bp HBV genome region from the nucleotide 2969 to 3096. The sequences of the primers and probe are shown as follows: […]
Anti-HBs antibody was examined in mouse serum using the anti-HBs CLIA kit (Antobio, Zhengzhou, China) according to the manufacturer's instruction with modification. ˜15 μL of the diluted (1:3) mouse serum samples were thawed at room temperature for 10 mins. 6 μL of sample was further diluted in 30 μL of PBS to make the final dilution 1:18 for the antibody test. Standard curve were prepared with monoclonal mouse antibody Anti-Hepatitis B Virus Surface Antigen (Ad/Ay) antibody [S35] (Abcam ab20402) in diluted Naive mouse serum (1:18 dilution in PBS). 1 μL of 1 mg/ml anti-HBs antibody was added into 500 μL of diluted mouse serum to make standard 1 as final concentration 2000 ng/ml. 50 μL of standard 1 then was added into 150 μL of diluted mouse serum to make standard 2 (1:4 dilution). 7 points standards were required for the test. The final concentration of standard 7 was (0.488 ng/ml). Blank serum was used as background control. 25 μL of diluted serum sample/standards/Blank was transferred into 96-well plate. Samples were incubated at room temperature for 1 hour followed by 3 times washing with 300 μL of PBST. 0.5 mg/ml of Goat anti-mouse IgG Biotinylated (Mabtech 3825-6-250) was diluted into PBS to final concentration 1 μg/ml (1:500 dilution). […] anti-mouse IgG Bio was added into plate, incubated at room temperature for 1 hour followed by 3 times washing with 300 μL of PBST. Streptavidin-HRP (Mabtech 3310-9) was diluted into PBS (1:250). 50 μL of diluted Streptavidin-HRP was incubated at room temperature for 1 hour followed by 3 times washing with 300 μL of PBST. Substrate A and substrate B (AntuBio) were mixed. 50 μL of mixture were added into plated and incubated for 10 mins before subjected to luminescence reading with Envision microplate reader. The lower limit of detection for anti HBsAb was 36 ng/mL. The anti HBsAb results were calculated from Luminescence raw data fitting on the anti HBsAb standard curve by SoftMax Pro (v5.4.1) software.
In Group 01, animals were treated with Vehicle every other day (QOD) for 42 days and served as the placebo control. In Group 02, Compound 4 was dosed once weekly (QW) at 10 mg/kg for 42 days. Compound 5 was dosed once daily (QD) at 20 mg/kg for 42 days alone in Group 03, or in combination with 10 mg/kg of Compound 4 QW in Group 04. All the test articles were administered by oral gavage (PO) with a total dose volume of 10 mL/kg. The 42-day treatment was followed by a 42-day off-treatment period. […]

[2] = Example 6, Compound 3 1 mg/kg QOW
[3] = Example 5, Compound 4 10 mg/kg QW

Structure (SMILES): COC(=O)C1=C(C)NC(c2ncc(F)cc2F)=N[C@H]1c1ccc(F)cc1Cl [Bay 41-4109]
in vivo efficacy, HBV DNA (HBV): in vivo efficacy with HBV DNA reduction

Structure (SMILES): CCN(C)C(=O)n1c(=O)n(Cc2ccc(Cl)cc2)c2nc([S@@](=N)(=O)CC)nc(N)c21 [Compound 3, 6-Amino-9-[(4-chlorophenyl)methyl]-N-ethyl-2-[S(S)-(ethylsulfonimidoyl)]-N-methyl-8-oxo-purine-7-carboxamide]
HBV DNA reduction (AAV-HBV; [2]): significant reduction
HBsAg reduction (AAV-HBV; [2]): significant reduction
conversion of prodrug into the active moiety [1]: efficiently converted

Structure (SMILES): CCCN(C)C(=O)n1c(=O)n(Cc2ccc(C)cc2)c2nc([S@](=N)(=O)CC)nc(N)c21 [Compound 4, 6-Amino-2-[S(R)-(ethylsulfonimidoyl)]-N-methyl-8-oxo-N-propyl-9-(p-tolylmethyl)purine-7-carboxamide]
HBV DNA reduction (AAV-HBV; [3]): significant reduction
HBsAg reduction (AAV-HBV; [3]): significant reduction
conversion of prodrug into the active moiety [1]: efficiently converted

Structure (SMILES): CCOC(=O)C1=C(CN2CCN3C(=O)N(CC(C)(C)C(=O)O)C[C@@H]3C2)NC(c2nccs2)=N[C@H]1c1cccc(F)c1C [Compound 5, 3-[(8aS)-7-[[(4S)-5-ethoxycarbonyl-4-(3-fluoro-2-methyl-phenyl)-2-thiazol-2-yl-1,4-dihydropyrimidin-6-yl]methyl]-3-oxo-5,6,8,8a-tetrahydro-1H-imidazo[1,5-a]pyrazin-2-yl]-2,2-dimethyl-propanoic acid]
HBV DNA reduction (AAV-HBV; [3]): significant reduction
HBsAg reduction (AAV-HBV; [3]): significant reduction
HBV DNA reduction (AAV-HBV; [2]): significant reduction
HBsAg reduction (AAV-HBV; [2]): significant reduction

More lines, now with the values ahead:

EC50 (human TLR7): 71 nM
Structure (SMILES): CC[S@](=N)(=O)c1nc(N)c2[nH]c(=O)n(Cc3ccc(Cl)cc3)c2n1 (single isomer, unassigned) [Compound 1e-A]

conversion of prodrug into the active moiety [1]: efficiently converted
Structure (SMILES): CCCN(C)C(=O)n1c(=O)n(Cc2ccc(Cl)cc2)c2nc([S@@](=N)(=O)CC)nc(N)c21 [Compound 1, 6-Amino-9-[(4-chlorophenyl)methyl]-2-[S(S)-ethylsulfonimidoyl]-N-methyl-8-oxo-N-propyl-purine-7-carboxamide]

EC50 (human TLR7): 85 nM
Structure (SMILES): CC[S@@](=N)(=O)c1nc(N)c2[nH]c(=O)n(Cc3ccc(Cl)cc3)c2n1 [Compound 1e-B]

conversion of prodrug into the active moiety [1]: efficiently converted
Structure (SMILES): CCCN(C)C(=O)n1c(=O)n(Cc2ccc(Cl)cc2)c2nc([S@](=N)(=O)CC)nc(N)c21 [Compound 2, 6-amino-9-[(4-chlorophenyl)methyl]-2-[S(R)-ethylsulfonimidoyl]-N-methyl-8-oxo-N-propyl-purine-7-carboxamide]

EC50 (human TLR7): 110 nM
Structure (SMILES): CC[S@@](=N)(=O)c1nc(N)c2[nH]c(=O)n(Cc3ccc(C)cc3)c2n1 [Compound 4f-A, 6-amino-2-(S(R)-ethylsulfonimidoyl)-9-(p-tolylmethyl)-7H-purin-8-one]
